Results published in patent US20120065228A1, “COMPOSITIONS AND METHODS FOR TREATING, CONTROLLING, REDUCING, OR AMELIORATING OCULAR INFLAMMATORY WITH LOWER RISK OF INCREASED INTRAOCULAR PRESSURE” (priority 2007, published 2012).
“And” between values parts separate entries of the source, which are not always exact repeats. Identical values can stand only once.

Legend:
[1] = tested on: protein concentration in the aqueous humor; test: Protein measurement in aqueous humor, rabbit paracentesis model; format: in vivo; conditions: for Protein in aqueous humor, Mean / Protein in aqueous humor: second paracentesis; for Protein in aqueous humor: individual eyes
Experimental: Each rabbit was placed in a restraint device and tagged with the alphanumeric code. The formulations were instilled (50 μl) into the conjunctival sac of both eyes 180, 120, 90 and 30 min before the first paracentesis; then 15, 30, 90 min after the first paracentesis. To perform the first paracentesis the animals were anaesthetized by intravenous injection of 5 mg/kg Zoletil® (Virbac; 2.5 mg/kg tiletamine HCl and 2.5 mg/kg zolazepam HCl) and one drop of local anesthetic (Novesina®, Novartis) was administered to the eye. Anterior chamber paracentesis was performed with a 26 G needle attached to a tuberculin syringe; the needle was introduced into the anterior chamber through the cornea, taking care not to damage the tissues. Two hours after the ® first paracentesis, the animals were sacrificed with 0.4 ml Tanax® (Intervet International B.V.) and the second paracentesis was performed. About 100 μl of aqueous humor were removed at the second paracentesis. Aqueous humor was immediately split in four aliquots and stored at −80° C. until analysis. Then both eyes were enucleated and the iris-ciliary body was carefully excised, placed in polypropylene tubes, and stored at −80° C. until analysis.
For protein concentration determination in the aqueous humor we used the Protein Quantification Kit (Fluka; Cat. No. 77371; Lot. No. 1303129). Five microliters of aqueous humor were diluted to 100 μl with water. Twenty microliters of samples and of standards were load into a 96-well plate and recorded in a plate layout. Samples were treated following the assay procedure described in the kit. A microplate reader (GDV, Italy; model DV 990 B/V6) set at 670 nm was used for making the calibration and analyzing the samples.
Pupillary diameter, PGE2, protein, PMN, and MPO were expressed as mean±SEM. Statistical analysis was performed using one way ANOVA followed by a Newman-Keuls post hoc test. Clinical score was expressed as % of eyes and the statistical analysis was performed using Kruskal-Wallis followed by a Dunn post hoc test. P<0.05 was considered statistically significant in both cases. Prism 4 software (GraphPad Software, Inc.) was used for the analysis and graphs.

[2] = tested on: myocilin protein in CM of monkey TM cells; test: Myocilin protein in conditioned media of monkey TM cells (Western blot); format: cell-based, rhesus monkeys (Macaca mulatta); conditions: for Effect on myocilin concentrations in CM: 3 to 300 nM, second 48-hour treatment period
Experimental: All animal procedures were in accordance with the ARVO (Association for Research in Vision and Ophthalmology) resolution on animal care. Eyes from freshly killed, healthy rhesus monkeys (Macaca mulatta), obtained from Lonza (Walkersville, Md.), were transported in CO2-independent medium on ice, and processed approximately 40 hours post-enucleation. Following removal of iris, lens, and the bulk of the ciliary body, opercula (an anatomical feature of monkey TM) were stripped from anterior segment quadrants. Using fine scissors, strips of TM were excised, and subdivided TM fragments were explanted to multiwell plates containing growth medium (described below) and incubated with Cytodex-3 gelatin-coated beads (Sigma Chemical Company, St. Louis, Mo.). The beads attach to the explants within hours and provide additional substrate area for out-migration of cells. Proliferating TM cells colonize additional beads and also “spill” onto the tissue culture plastic and form colonies. After several days, the original TM explants and beads were transferred to new wells, generating additional primary cultures. Subconfluent monolayers of cells on tissue culture plastic were passed from 12-well plates to 35- or 60-mm dishes using a Collagenase-Dispase (Roche Applied Bioscience, Indianapolis, Ind.). Second- or third-passage subcultures were finally harvested enzymatically as above, and the cells were counted and cryopreserved in liquid nitrogen.
For each study, up to nine TM cell strains, each derived from an individual monkey, were tested separately. Cells were thawed and seeded into 12- or 48-well clusters (Falcon, BD Biosciences; 150,000 and 30,000 cells/well, respectively) in proliferation medium. When cells were 75% to 90% confluent proliferation medium was replaced by a 5:4 mixture of HESFM and Dulbecco's MEM, respectively, supplemented with 10% FBS, with added taurine, ascorbic acid phosphate, glutathione, and antibiotic as for proliferation medium (above), and with 2.72 g/L glucose and 1.72 g/L fructose. At confluence, the medium was changed to Dulbecco's MEM, containing 10% FBS^40, ascorbic acid phosphate, antibiotic, 2.72 g/L glucose and 1.72 g/L fructose. Cells were maintained as stable, confluent monolayers in this latter medium for 4 to 7 days before experimental treatments commenced.
All treatments, including media for vehicle control samples, contained a final DMSO concentration of 0.1% (v/v) across the concentration ranges selected. Treatments lasted 96 hours, with one exchange of medium on the third treatment day. The final 48-hr conditioned media (“CM”) samples were collected in their entirety (0.5 ml), centrifuged briefly to remove particulates, aliquoted, and stored at −20° C. until thawed for analysis.
Undiluted CM was combined with denaturing 4× sample buffer containing 2% SDS, and samples were loaded at equivalent protein content onto 4-20% Tris-HCl polyacrylamide gels (BioRad, Hercules, Calif.). After electrophoresis, proteins underwent wet transfer to […] nitrocellulose (BioRad) for immunoblotting. The filters were blocked with 5% (w/v) nonfat dry milk (BioRad) in Tris-buffered saline plus 0.02% (v/v) Tween-20 (“TBST”; Tween-20 from Calbiochem, San Diego, Calif.), and incubated with a 1:2000 dilution (from 200 μg/ml) of goat anti-recombinant human myocilin antibody (R&D Systems, Minneapolis, Minn.) in blocking buffer, overnight at 4° C. […]

Compound | Protein in aqueous humor, Mean ([1]; 0.1% topical formulation) | Protein in aqueous humor ([1]; 0.1% topical formulation, listed as BOL) | Protein in aqueous humor, statistical significance vs CTR ([1]; 0.5% topical formulation, p<0.05) | Protein in aqueous humor, Mean ([1]; 0.5% topical formulation) | Protein in aqueous humor ([1]; 0.5% topical formulation, listed as BOL) | Protein in aqueous humor, statistical significance vs CTR ([1]; 1% topical formulation, p<0.001) | Protein in aqueous humor, Mean ([1]; 1% topical formulation) | Protein in aqueous humor ([1]; 1% topical formulation, listed as BOL) | Levels of myocilin protein released by cultured monkey TM cells, compared to DEX [2] | Effect on myocilin concentrations in CM [2] | Maximal efficacy for myocilin accumulation in CM, relative to DEX treatment ([2]; computed across all nine TM cells strains) | Activity on myocilin gene expression ([2]; monkey TM cells, compared with DEX at high doses) | Protein in aqueous humor ([1]; 0.1% topical formulation, listed as Dex)
Cc1ccc2c(NCC(O)(CC(C)(C)c3cc(F)cc4c3OCC4)C(F)(F)F)cccc2n1 (stereo not drawn) [BOL-303242-X] | 33.667 mg/mL | 34.87 mg/mL and 34.41 mg/mL and 31.14 mg/mL and 22.82 mg/mL and 29.46 mg/mL and 31.69 mg/mL and 35.70 mg/mL and 49.25 mg/mL | statistical significance | 28.844 mg/mL | 33.98 mg/mL and 33.65 mg/mL and 19.99 mg/mL and 27.11 mg/mL and 19.72 mg/mL and 36.35 mg/mL and 27.71 mg/mL and 32.24 mg/mL | statistical significance | 21.435 mg/mL | 20.99 mg/mL and 21.48 mg/mL and 15.11 mg/mL and 20.28 mg/mL and 20.94 mg/mL and 21.89 mg/mL and 20.03 mg/mL and 30.76 mg/mL | significantly lower levels | increased myocilin concentrations in a dose-dependent manner | about 50% | partial agonist activity | –
C[C@@H]1C[C@H]2[C@@H]3CCC4=CC(=O)C=C[C@]4(C)[C@@]3(F)[C@@H](O)C[C@]2(C)[C@@]1(O)C(=O)CO [dexamethasone, reference compound] | 33.457 mg/mL | – | – | – | – | – | – | – | – | increased myocilin concentrations in a dose-dependent manner | – | – | 31.31 mg/mL and 31.81 mg/mL and 35.95 mg/mL and 37.15 mg/mL and 32.12 mg/mL and 32.40 mg/mL
